Assay results: patent US20230072790A1, “COMPOUNDS AND FORMULATIONS FOR PROTECTIVE COATINGS” (Apeel Technology, Inc., priority 2021, published 2023)

How the values were obtained:
[1] = system: unwaxed pixie oranges; experiment: Mass loss factor of coated unwaxed pixie oranges (Example 13); assay type: in vivo, orange; conditions: 2 g/L sorbitan monolaurate added to 50 g/L 95/5 monostearate/sodium stearate, bowl dip, 70° C.
Procedure: (§1) As used herein, the term “mass loss factor” is defined as the ratio of the average mass loss rate of uncoated produce (measured for a control group) to the average mass loss rate of the corresponding tested produce (e.g., coated produce) over a given time.
FIG. 21 is a graph showing mass loss factors for unwaxed pixie oranges (“pixies”). One group of pixies was not treated. A second group of pixies was treated with 50 g/L of Treatment C. A third group of pixies was treated with 50 g/L of Treatment C and 2 g/L of a wetting agent (WAG). A fourth group of pixies was treated with 50 g/L of a 95/5 mixture of monostearate/sodium stearate and 2 g/L sorbitan monolaurate. The coatings were applied using a bowl dip method and were dried at a temperature of 70° C. […] The pixies were mostly dry (~80%) coming out of the heat tunnel.

[2] = system: California avocados; experiment: Respiration factor of coated California avocados (Example 11); assay type: in vivo, avocado; conditions: 30 g/L sorbitan ester
Text: (§2) As used herein, the term “respiration rate” refers to the rate at which the product releases gas, such as CO2. This rate can be determined from the volume of gas (e.g., CO2) (at standard temperature and pressure) released per unit time per unit weight of the product. The respiration rate can be expressed as ml gas/kg·hour. The respiration rate of the product can be measured by placing the product in a closed container of known volume that is equipped with a sensor, such as a CO2 sensor, recording the gas concentration within the container as a function of time, and then calculating the rate of gas release required to obtain the measured concentration values.
(§3) As used herein, the term “respiration factor” is defined as the ratio of the average gas diffusion (e.g., CO2 release) of uncoated produce (measured for a control group) to the average gas diffusion of the corresponding tested produce (e.g., coated produce) over a given time.
FIG. 17 is a graph showing mass loss factors for California avocados. The Untreated group of avocadoes was not treated. A second group of avocados was treated with 15 g/L of Treatment C. A third group of avocados was treated with 30 g/L of Treatment C. A fourth group of avocados was treated with 30 g/L sorbitan monopalmitate (MP) (100 wt%). A fifth group of avocados was treated with a 30 g/L sorbitan monostearate (MS). […]

[3] = X-ray scattering of thin-film coatings (Example 10); assay type: physicochemical; conditions: 95 wt% sorbitan ester / 5 wt% sodium stearate; film cast from 30 g/L aqueous solution, dried 40° C. 4 hours
Text: As used herein, “lamellar structure” refers to a structure comprising lamella(e) vertically stacked adjacent to each other and held together by intermolecular forces. As used herein, “lamella(e)” refers to one lamella or two or more lamellae, that is, one or more discrete layers of molecules, respectively. In some embodiments, the molecules present in the lamella(e) are ordered (e.g., aligned, as in an open bilayer). The distance between a surface of a lamella and a surface of an adjacent lamella that is facing the same direction is referred to herein as “interlayer spacing” or “periodic spacing”. Interlayer spacing between two lamellae is determined by (1) obtaining an out-of-plane X-ray scattering image of a coating, (2) determining the scattering vector (q) of the peak corresponding to the lamellar structure, and (3) using Bragg’s equation below, determine the interlayer spacing (d).
Coating agents were applied to the surface of a plastic substrate, which acts as a hydrophilic surface when exposed to air. An X-ray scattering image of the applied coat was obtained to identify characteristics of the coating.
Specifically, a coating agent of sorbitan monostearate (95 wt%) and sodium stearate (5 wt%) was applied to a substrate as a thin-film. The films were drop cast from a 30 g/L aqueous solution and dried at 40° C. for 4 hours. […] “LAM” refers to lamellar or bilayer morphology. […]

[4] = system: Mexican avocados; experiment: Mass loss factor of coated Mexican avocados (Example 12); assay type: in vivo, avocado; conditions: brush bed, dried 70° C., sorbitan monostearate as 94 wt% with 6 wt% sodium stearate
Procedure: as §1
FIG. 19 is a graph showing mass loss factors (MLF) for Mexican avocados. A first group of avocados was not treated. A second group of avocados was treated with 20 g/L of Treatment C. A third group of avocados was treated with 40 g/L of Treatment C. The monoglyceride coatings were mixed with a high shear mixer. A fourth group of avocados was treated with 20 g/L of a mixture of sorbitan monostearate (94 wt%) and sodium stearate (6 wt%). A fifth group of avocados was treated with 40 g/L of a mixture of sorbitan monostearate (94 wt%) and sodium stearate (6 wt%). The sorbitan monostearate coatings were mixed with blenders. The coatings were applied using a brush bed and were dried at a temperature of 70° C. […] The MLF of 20 g/L of […] monostearate/sodium stearate was 1.49 and the MLF of the 40 g/L 95/5 monostearate/sodium stearate was 2.24.

[5] = system: Mexican avocados; experiment: Respiration factor of coated Mexican avocados (Example 12); assay type: in vivo, avocado; conditions: day 1
Text: as §2, §3
FIG. 19 is a graph showing mass loss factors (MLF) for Mexican avocados. A first group of avocados was not treated. A second group of avocados was treated with 20 g/L of Treatment C. A third group of avocados was treated with 40 g/L of Treatment C. The monoglyceride coatings were mixed with a high shear mixer. A fourth group of avocados was treated with 20 g/L of a mixture of sorbitan monostearate (94 wt%) and sodium stearate (6 wt%). […]

Row | Substance | mass loss factor increase compared to the untreated substrates [1] [times] | respiration factor compared with 95/5 monostearate/sodium stearate at 30 g/L [2] | periodicity of alternating bilayers [3] [nm] | MLF (mass loss factor) ([4]; 20 g/L) | MLF (mass loss factor) ([4]; 40 g/L) | RF (respiration factor) ([5]; 20 g/L) | RF (respiration factor) ([5]; 40 g/L)
1 | sorbitan monolaurate | 3.56 | – | – | – | – | – | –
2 | sorbitan monopalmitate | – | higher | 5.6 | – | – | – | –
3 | sorbitan monostearate | – | comparable | 5.5 | 1.83 | 2.32 | 1.15 | 1.25
